Patent US20230391760A1, “HETEROCYCLIC GLP-1 AGONISTS” (Gasherbrum Bio, Inc., priority 2020, published 2023)

Biological target: GLP-1 Receptor (Homo sapiens, UniProt P43220)
Assay: GLP-1R agonist cAMP stimulation assay (HEK293/GLP1R/CRE-LUC cells, cAMP dynamic 2 Kit)
Type: cell-based
Details: HEK293/CRE-Luc cell line stably expressing the GLP-1 Receptor, 30 min at 37° C.
Method in brief: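 cAMP measured by HTRF competition (d2-labelled cAMP with cryptate antibody, 1 h, room temperature, protected from light). Before that, GLP1R/CRE-Luc HEK293 cells (1000/well) were exposed for 30 min at 37 °C to half-log compound dilutions in DPBS containing IBMX 0.5 mM and BSA 0.1%.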

Chain of GLP-1 Receptor (P43220 24-463, species assumed): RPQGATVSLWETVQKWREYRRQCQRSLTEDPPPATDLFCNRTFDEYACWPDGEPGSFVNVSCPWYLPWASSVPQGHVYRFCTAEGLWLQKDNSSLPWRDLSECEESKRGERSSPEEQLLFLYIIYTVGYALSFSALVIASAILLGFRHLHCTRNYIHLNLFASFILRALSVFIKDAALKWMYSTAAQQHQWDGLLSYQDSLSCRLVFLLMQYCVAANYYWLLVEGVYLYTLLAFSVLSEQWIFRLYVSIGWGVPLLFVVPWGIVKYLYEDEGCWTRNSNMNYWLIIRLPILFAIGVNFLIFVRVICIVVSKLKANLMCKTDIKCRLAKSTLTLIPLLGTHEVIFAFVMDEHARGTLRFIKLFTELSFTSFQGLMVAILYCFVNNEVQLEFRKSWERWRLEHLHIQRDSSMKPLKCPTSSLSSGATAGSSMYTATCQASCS

Row | Molecule | EC50
1 | O=c1[nH]ccn1-c1ccc2c(c1)nc(CN1CCC(c3cccc(OCc4ccc(Cl)cc4F)n3)CC1)n2C[C@@H]1CCO1 [Compound 122a, 1-{2-[(4-{6-[(4-chloro-2-fluorophenyl)methoxy]pyridin-2-yl}piperidin-1-yl)methyl]-1-{[(2S)-oxetan-2-yl]methyl}-1H-1,3-benzodiazol-5-yl}-2,3-dihydro-1H-imidazol-2-one] | 2400 pM
2 | CO[C@@H](C)Cn1c(CN2CCC(c3cccc4c3OC(C)(c3ccc(Cl)cn3)O4)CC2)nc2cc(-c3noc(=O)[nH]3)ncc21 (stereo partly drawn) [Compound 437a, 3-[2-({4-[2-(5-chloropyridin-2-yl)-2-methyl-2H-1,3-benzodioxol-4-yl]piperidin-1-yl}methyl)-3-[(2S)-2-methoxypropyl]-3H-imidazo[4,5-c]pyridin-6-yl]-4,5-dihydro-1,2,4-oxadiazol-5-one] | 2700 pM
3 | CC1(c2ccc(C#N)cc2F)Oc2cccc(C3CCN(Cc4nc5cc(-c6noc(=O)[nH]6)cnc5n4C[C@@H]4CCO4)CC3)c2O1 (stereo partly drawn) [Compound 329a, 3-fluoro-4-(2-methyl-4-{1-[(3-{[(2S)-oxetan-2-yl]methyl}-6-(5-oxo-4,5-dihydro-1,2,4-oxadiazol-3-yl)-3H-imidazo[4,5-b]pyridin-2-yl)methyl]piperidin-4-yl}-2H-1,3-benzodioxol-2-yl)benzonitrile] | 250 pM
4 | CC1(c2ccc(Cl)cc2F)Oc2cccc(C3CCN(Cc4nc5cc(-c6nnn[nH]6)ncc5n4C[C@@H]4CCO4)CC3)c2O1 (stereo partly drawn) [Compound 218a, 4-[2-(4-chloro-2-fluorophenyl)-2-methyl-2H-1,3-benzodioxol-4-yl]-1-[(3-{[(2S)-oxetan-2-yl]methyl}-6-(1H-1,2,3,4-tetrazol-5-yl)-3H-imidazo[4,5-c]pyridin-2-yl)methyl]piperidine] | 13 pM
5 | O=C(Nc1ccc2c(c1)nc(CN1CCC(c3cccc(OCc4ccc(Cl)cc4F)n3)CC1)n2C[C@@H]1CCO1)N1CCC(F)(F)C1 [Compound 205a, N-{2-[(4-{6-[(4-chloro-2-fluorophenyl)methoxy]pyridin-2-yl}piperidin-1-yl)methyl]-1-{[(2S)-oxetan-2-yl]methyl}-1H-1,3-benzodiazol-5-yl}-3,3-difluoropyrrolidine-1-carboxamide] | 2800 pM
6 | C[C@]1(c2ccc(Cl)cc2F)Oc2cccc(C3CCN(Cc4nc5cc(-c6nnc(C(F)(F)F)[nH]6)ccc5n4CC4(C#N)CC4)CC3)c2O1 [Compound 412a, 1-{[2-({4-[(2S)-2-(4-chloro-2-fluorophenyl)-2-methyl-2H-1,3-benzodioxol-4-yl]piperidin-1-yl}methyl)-5-[5-(trifluoromethyl)-4H-1,2,4-triazol-3-yl]-1H-1,3-benzodiazol-1-yl]methyl}cyclopropane-1-carbonitrile] | 33 pM
7 | Cc1cncc(C)c1C(=O)Nc1ccc2c(c1)nc(CN1CCC(c3cccc(OCc4ccc(Cl)cc4F)n3)CC1)n2C[C@@H]1CCO1 [Compound 191a, N-{2-[(4-{6-[(4-chloro-2-fluorophenyl)methoxy]pyridin-2-yl}piperidin-1-yl)methyl]-1-{[(2S)-oxetan-2-yl]methyl}-1H-1,3-benzodiazol-5-yl}-3,5-dimethylpyridine-4-carboxamide] | 8800 pM
8 | 4-[2-(4-chloro-2-fluorophenyl)-2-methyl-2H-1,3-benzodioxol-4-yl]-1-[(3-{[(2S)-oxolan-2-yl]methyl}-6-[5-(trifluoromethyl)-4H-1,2,4-triazol-3-yl]-3H-imidazo[4,5-b]pyridin-2-yl)methyl]piperidine [Compound 247a] | 3400 pM
9 | C[C@H]1CN(c2ccc(F)c(OCc3ccc(C#N)cc3F)c2)CCN1Cc1nc2cc(-c3nnc(C(F)(F)F)[nH]3)nnc2n1C[C@@H]1CCO1 [Compound 522a, 3-fluoro-4-({2-fluoro-5-[(3S)-3-methyl-4-[(7-{[(2S)-oxetan-2-yl]methyl}-3-[5-(trifluoromethyl)-4H-1,2,4-triazol-3-yl]-7H-imidazo[4,5-c]pyridazin-6-yl)methyl]piperazin-1-yl]phenoxy}methyl)benzonitrile] | 460 pM
10 | Cn1nc(-c2ccc3c(c2)nc(CN2CCC(c4cccc5c4OC(C)(c4ccc(Cl)cc4F)O5)CC2)n3C[C@@H]2CCO2)oc1=O (stereo partly drawn) [Compound 220a, 5-[2-({4-[2-(4-chloro-2-fluorophenyl)-2-methyl-2H-1,3-benzodioxol-4-yl]piperidin-1-yl}methyl)-1-{[(2S)-oxetan-2-yl]methyl}-1H-1,3-benzodiazol-5-yl]-3-methyl-2,3-dihydro-1,3,4-oxadiazol-2-one] | 2800 pM
11 | O=C(Nc1ccc2c(c1)nc(CN1CCC(c3cccc(OCc4ccccc4)n3)CC1)n2C[C@@H]1CCO1)c1cccnc1 [Compound 204a, N-[2-({4-[6-(benzyloxy)pyridin-2-yl]piperidin-1-yl}methyl)-1-{[(2S)-oxetan-2-yl]methyl}-1H-1,3-benzodiazol-5-yl]pyridine-3-carboxamide] | 840 pM
12 | CO[C@H](C)Cn1c(CN2CCC(c3cccc4c3O[C@@](C)(c3ccc(Cl)cc3F)O4)CC2)nc2cc(-c3noc(=O)[nH]3)ncc21 [Compound 419a, 3-[2-({4-[(2S)-2-(4-chloro-2-fluorophenyl)-2-methyl-2H-1,3-benzodioxol-4-yl]piperidin-1-yl}methyl)-3-[(2R)-2-methoxypropyl]-3H-imidazo[4,5-c]pyridin-6-yl]-4,5-dihydro-1,2,4-oxadiazol-5-one] | 72 pM
13 | Fc1cc(Cl)ccc1COc1nccc(C2CCN(Cc3nc4cc(-c5nnc(C(F)(F)F)[nH]5)nnc4n3C[C@@H]3CCO3)CC2)n1 [Compound 508a, 2-[(4-chloro-2-fluorophenyl)methoxy]-4-{1-[(7-{[(2S)-oxetan-2-yl]methyl}-3-[5-(trifluoromethyl)-4H-1,2,4-triazol-3-yl]-7H-imidazo[4,5-c]pyridazin-6-yl)methyl]piperidin-4-yl}pyrimidine] | 420 pM
14 | CNC(=O)Nc1ccc2c(c1)nc(CN1CCC(c3cccc(OCc4ccc(Cl)cc4F)n3)CC1)n2C[C@@H]1CCO1 [Compound 145a, 1-{2-[(4-{6-[(4-chloro-2-fluorophenyl)methoxy]pyridin-2-yl}piperidin-1-yl)methyl]-1-{[(2S)-oxetan-2-yl]methyl}-1H-1,3-benzodiazol-5-yl}-3-methylurea] | 160 pM
15 | O=c1[nH]c(-c2cc3nc(CN4CC=C(c5ccc(F)c(OCc6ccc(Cl)cc6F)c5)CC4)n(C[C@@H]4CCO4)c3cn2)no1 [Compound 299a, 3-{2-[(4-{3-[(4-chloro-2-fluorophenyl)methoxy]-4-fluorophenyl}-1,2,3,6-tetrahydropyridin-1-yl)methyl]-3-{[(2S)-oxetan-2-yl]methyl}-3H-imidazo[4,5-c]pyridin-6-yl}-4,5-dihydro-1,2,4-oxadiazol-5-one] | 260 pM
16 | CO[C@H](C)Cn1c(CN2CCC(c3cccc4c3O[C@@](C)(c3ccc(Cl)cc3F)O4)CC2)nc2cc(-c3nnc(C(F)(F)F)[nH]3)nnc21 [Compound 452a, 4-[(2S)-2-(4-chloro-2-fluorophenyl)-2-methyl-2H-1,3-benzodioxol-4-yl]-1-({7-[(2R)-2-methoxypropyl]-3-[5-(trifluoromethyl)-4H-1,2,4-triazol-3-yl]-7H-imidazo[4,5-c]pyridazin-6-yl}methyl)piperidine] | 140 pM
17 | Fc1cc(Cl)ccc1COc1ccc(F)c(N2CCN(Cc3nc4cc(-c5nnc(C(F)(F)F)[nH]5)nnc4n3C[C@@H]3CCO3)CC2)n1 [Compound 502a, 1-{6-[(4-chloro-2-fluorophenyl)methoxy]-3-fluoropyridin-2-yl}-4-[(7-{[(2S)-oxetan-2-yl]methyl}-3-[5-(trifluoromethyl)-4H-1,2,4-triazol-3-yl]-7H-imidazo[4,5-c]pyridazin-6-yl)methyl]piperazine] | 92 pM
18 | CC1(c2ccc(Cl)cc2F)Oc2cccc(C3=CCN(Cc4nc5cc(-c6nnc(C(F)(F)F)[nH]6)ccc5n4C[C@@H]4CCO4)CC3)c2O1 (stereo partly drawn) [Compound 256a, 2-({4-[2-(4-chloro-2-fluorophenyl)-2-methyl-2H-1,3-benzodioxol-4-yl]-1,2,3,6-tetrahydropyridin-1-yl}methyl)-1-{[(2S)-oxetan-2-yl]methyl}-5-[5-(trifluoromethyl)-4H-1,2,4-triazol-3-yl]-1H-1,3-benzodiazole] | 230 pM
19 | N#Cc1cccc(C(=O)Nc2ccc3c(c2)nc(CN2CCC(c4cccc(OCc5ccc(Cl)cc5F)n4)CC2)n3C[C@@H]2CCO2)c1 [Compound 169a, N-{2-[(4-{6-[(4-chloro-2-fluorophenyl)methoxy]pyridin-2-yl}piperidin-1-yl)methyl]-1-{[(2S)-oxetan-2-yl]methyl}-1H-1,3-benzodiazol-5-yl}-3-cyanobenzamide] | 920 pM
20 | Fc1cc(C(F)(F)F)ccc1COc1cccc(C2CCN(Cc3nc4cc(-c5nnc(C(F)(F)F)[nH]5)ncc4n3C[C@@H]3CCO3)CC2)n1 [Compound 497a, 2-{[2-fluoro-4-(trifluoromethyl)phenyl]methoxy}-6-{1-[(3-{[(2S)-oxetan-2-yl]methyl}-6-[5-(trifluoromethyl)-4H-1,2,4-triazol-3-yl]-3H-imidazo[4,5-c]pyridin-2-yl)methyl]piperidin-4-yl}pyridine] | 34 pM
21 | Fc1cc(Cl)ccc1COc1cccc(C2CCN(Cc3nc4cc(-c5nnc(C(F)(F)F)[nH]5)ncc4n3C[C@@H]3CCO3)CC2)n1 [Compound 435a, 2-[(4-chloro-2-fluorophenyl)methoxy]-6-{1-[(3-{[(2S)-oxetan-2-yl]methyl}-6-[5-(trifluoromethyl)-4H-1,2,4-triazol-3-yl]-3H-imidazo[4,5-c]pyridin-2-yl)methyl]piperidin-4-yl}pyridine] | 18 pM
22 | CC1(c2ccc(Cl)cc2F)Oc2cccc(C3CCN(Cc4nc5cc(-c6cn[nH]c6)ccc5n4C[C@@H]4CCO4)CC3)c2O1 (stereo partly drawn) [Compound 234a, 2-((4-(2-(4-chloro-2-fluorophenyl)-2-methylbenzo[d][1,3]dioxol-4-yl)piperidin-1-yl)methyl)-1-(((S)-oxetan-2-yl)methyl)-5-(1H-pyrazol-4-yl)-1H-benzo[d]imidazole] | 3700 pM
